pIC50, pKi: −log10 of the molar value. In brackets after ≈: the same amount, converted by molar mass.
Experiments:
Toxoplasma gondii = assay: Antiparasitic activity against Toxoplasma gondii tachyzoites infected in human HeLa cells; type: functional, organism-based
Trypanosoma cruzi = assay: Antitrypanosomal activity against Trypanosoma cruzi trypomastigotes assessed as parasite growth inhibition; type: functional, organism-based
[1] = Binding affinity to PDE4 (unknown origin) expressed in Escherichia coli using cAMP as substrate assessed as inhibition constant by fluorescence polarization assay; design: species or system Homo sapiens
[2] = Inhibition of human recombinant catalytic domain PDE4 (152 to 484 residues) by fluorescence polarization assay
Autotaxin = Autotaxin (Homo sapiens, UniProt Q13822); assay: Inhibition of ATX (unknown origin)

`O=C(O)CCc1cccc2c1B(O)OC2` gave a pIC50 (Toxoplasma gondii) of 6.05.
Work on `COc1cc(C(=O)/C=C/c2ccc3c(c2)B(O)OC3)ccc1N` yielded an IC50 (Trypanosoma cruzi) of 0.01 µg/mL (≈ 0.0323 µM).
In the case of `N#Cc1ccc(Oc2ccc3c(c2)COB3O)cc1C#N`, the pKi [1] was 7.19.
Compound `CC(=O)CCCOc1cc(C#N)c(Cl)nc1Oc1ccc2c(c1)COB2O` has a pIC50 [2] of 9.49.
Work on `CC(C)OCCOc1cc(C#N)cnc1Oc1ccc2c(c1)COB2O` yielded a pIC50 [2] of 8.52.
`O=C(OCc1cc(Cl)cc(Cl)c1)N1CCN(C2CN(C(=O)c3ccc4c(c3)COB4O)C2)CC1` gave a pIC50 (Autotaxin) of 6.89.
Compound `O=C1N=C(N2CCN(Cc3ccc(B(O)O)cc3)CC2)S/C1=C/c1ccc(Cl)c(Cl)c1` has a pIC50 (Autotaxin) of 7.89.
Compound `N#Cc1ccc(Oc2ccc3c(c2)COB3O)cc1` [CRISABOROLE] has a pKi [1] of 6.76.
